Measured values reported in patent publication US9381252B2, “Nanoparticles for encapsulation of compounds, the production and uses thereof” (UNIVERSIDAD DE NAVARRA, priority 2010, dated 2016).
Where two headings read alike, the source gives them in different places.

Assay: Pharmacokinetic study, bioavailability of folic acid encapsulated in zein nanoparticles
Format: in vivo, male Wistar rats
Settings: male, Wistar; for bioavailability: serum, rat, read-out: FR (relative bioavailability in percentage); for AUC: read-out: AUC (×10^4) (converted)
Method: The pharmacokinetic studies were carried out according to the rules of the ethics committee of the Institution as well as the European laws on experimental animals (86/609/EU). To that end, 20 male Wistar rats with an average weight of 200 g were subjected to normal conditions of light-darkness (12 hours-12 hours), and during the week before the study they were fed with a folic acid-deficient feed (Folic Acid Deficient Diet. TD. 95247. Harlan, USA) and water. Twelve hours before the administration of the formulations, the rats were isolated in metabolic cages without access to food, but with free access to drinking water.
The animals were divided into 4 treatment groups (5 rats per group). Only 1 mL of PBS (Phosphate Buffer, pH 7.4) was orally administered to the first of the group. The two following groups were treated with single oral doses of 1 mg/kg (200 μg/rat) of folic acid (Aditio, Panreac Quimica, Barcelona, Spain) incorporated in zein nanoparticles, or in free form (not encapsulated) dissolved in water. 1 mL of each of the different formulations dispersed in water was administered through a gastroesophageal cannula. Finally, the same dose of free folic acid (1 mg/kg) dissolved in phosphate buffer (PBS) (0.5 mL) was intravenously administered to the fourth group in the saphenous vein. Before the administration of the formulations, blood was extracted from the tail saphenous vein for the purpose of checking the baseline level of the vitamin in each rat. After the administration, a volume of blood of approximately 500 μL was extracted at different times using serum-separating tubes ([…] Microtube 1.1 mL Z-Gel). In all the cases, to prevent the pain of the rats, the extraction was carried out after anesthetizing the animal with inhalational anesthesia (isoflurane:oxygen), checking their vital signs at all times.
The blood volume was subsequently replaced by intraperitoneally administering 500 μL of physiological saline previously heated to the temperature of the animal. During this period, the condition of the animals (mobility, aggressiveness, allergic reactions and temperature) was examined, no significant changes being observed.
The quantification of folic acid in the serum samples, obtained after centrifuging the tubes with blood (6,000 rpm, 20 minutes, 20° C.), was carried out by means of an enzyme immunoassay technique. To that end, an Elisa Kit (Diagnostic automation, INC. Calabasas, Calif. USA) approved by the FDA for the quantitative determination of folic acid in foods, was used. The serum samples were quantified without prior treatment and following the manufacturer's specifications.
In all the studied cases, the differences in the serum folic acid concentrations found by both methods were less than 10%. Therefore, the enzyme immunoassay technique was chosen to quantify all the samples, since it requires a smaller amount of serum for the analysis thereof and is a simpler and quicker technique, the limit of detection of which (2 ng/mL) is much lower than that of the chromatographic technique.
The pharmacokinetic study was divided into three phases. The first of them consisted of intravenously administering 1 mg/kg of folic acid dissolved in phosphate buffer; the second of them consisted of orally administering to the rats 1 mL of phosphate buffer (PBS) to a group of 5 male Wistar rats (the baseline levels of the vitamin over time were studied in this group of rats). Finally, the third phase consisted of orally administering 1 mg/kg of (i) folic acid dissolved in water, (ii) folic acid encapsulated in zein nanoparticles to groups of rats formed by 5 animals.
After the administration, a volume of blood of approximately 500 μL was extracted at different times (0, 1, 2, 3, 8 and 24 hours) and collected in serum-separating tubes, subsequently recovering the blood volume of the animal with an equivalent volume of saline by intraperitoneal route. […]

[1] = rat serum, intravenous route, 1 mg/kg folic acid in PBS, mean ± SD, n = 5
[2] = rat serum, oral route, 1 mg/kg folic acid, mean ± SD, n = 5

Nc1nc2ncc(CNc3ccc(C(=O)N[C@@H](CCC(=O)O)C(=O)O)cc3)nc2c(=O)[nH]1 [Non-encapsulated FA, folic acid]
bioavailability (intravenous route, 1 mg/kg folic acid in PBS): 100% | bioavailability (oral route, 1 mg/kg folic acid, mean ± SD, n = 5): 36.3 ± 7.2% | Cmax [1]: 4230 ± 1650 ng/mL | MRT [1]: 57.8 min | AUC [1]: 3580 ng·h/mL | Cmax [2]: 191 ± 41 ng/mL | MRT [2]: 384 min | Tmax [2]: 58.8 min | AUC [2]: 1300 ng·h/mL
